Assay results taken from article PMC2774819 (Chemistry & biology, 2008).
Read-outs that look alike come from different tables or passages of the source. Blank lines part the entries; values can stand above or below the molecule they belong to.

What was measured:
[1] = biological target: T1, MycG (Micromonospora griseorubida, UniProt Q59523); assay: spectral substrate binding assay
T1 sequence (Q59523 1-397): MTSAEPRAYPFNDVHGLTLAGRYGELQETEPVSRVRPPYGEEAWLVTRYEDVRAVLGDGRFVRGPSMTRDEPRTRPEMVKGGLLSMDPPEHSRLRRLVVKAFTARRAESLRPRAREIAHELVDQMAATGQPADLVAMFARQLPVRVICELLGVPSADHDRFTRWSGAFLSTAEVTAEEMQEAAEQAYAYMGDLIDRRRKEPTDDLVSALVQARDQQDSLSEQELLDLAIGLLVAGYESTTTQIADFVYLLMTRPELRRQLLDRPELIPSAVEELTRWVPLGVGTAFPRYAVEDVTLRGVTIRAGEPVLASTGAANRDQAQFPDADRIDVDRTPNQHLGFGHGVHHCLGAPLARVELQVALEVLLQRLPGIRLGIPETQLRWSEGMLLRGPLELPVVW

[2] = biological target: T1, MycG; assay: spectral substrate binding assay; remark: listed apart in the source
[3] = biological target: T2, MycCI (Micromonospora griseorubida, UniProt Q83WF5); assay: spectral substrate binding assay
T2 sequence (Q83WF5 1-388): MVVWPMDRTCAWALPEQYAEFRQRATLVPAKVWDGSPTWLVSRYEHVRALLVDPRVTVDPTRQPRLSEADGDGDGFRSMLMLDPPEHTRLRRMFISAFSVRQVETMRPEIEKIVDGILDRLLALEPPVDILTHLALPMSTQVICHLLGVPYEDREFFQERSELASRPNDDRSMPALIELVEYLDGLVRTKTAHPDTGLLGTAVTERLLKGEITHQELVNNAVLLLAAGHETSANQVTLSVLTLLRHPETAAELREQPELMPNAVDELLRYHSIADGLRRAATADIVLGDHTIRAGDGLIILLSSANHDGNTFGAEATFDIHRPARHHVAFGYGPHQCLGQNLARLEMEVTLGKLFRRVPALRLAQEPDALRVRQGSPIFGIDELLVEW

[4] = biological target: MycCI cytochrome P450, C-terminal 6 x His tagged (Micromonospora griseorubida) (UniProt Q83WF5); assay: spectral ferredoxin titration
[5] = biological target: T3, MycCI cytochrome P450, C-terminal 6 x His tagged (Micromonospora griseorubida, UniProt Q83WF5 1-388); assay: spectral ferredoxin titration
T3 sequence (looked up): T2 sequence (Q83WF5 1-388)

Kd [1]: 71.5 ± 8.4 µM
Molecule: CC[C@H]1OC(=O)/C=C/[C@H](C)[C@@H](O[C@@H]2O[C@H](C)C[C@H](N(C)C)[C@H]2O)[C@@H](C)C[C@@H](C)C(=O)/C=C/[C@H]2O[C@@H]2[C@]1(O)CO[C@@H]1O[C@H](C)[C@@H](O)[C@@H](OC)[C@H]1OC [M-II, mycinamicin II]

Kd [1]: 0.7 ± 0.1 µM
Molecule: CC[C@H]1OC(=O)/C=C/[C@H](C)[C@@H](O[C@@H]2O[C@H](C)C[C@H](N(C)C)[C@H]2O)[C@@H](C)C[C@@H](C)C(=O)/C=C/C=C/[C@@H]1CO[C@@H]1O[C@H](C)[C@@H](O)[C@@H](OC)[C@H]1OC [M-IV, mycinamicin IV]

Kd [2]: 10.4 ± 0.2 µM
Molecule: CC[C@H]1OC(=O)/C=C/[C@H](C)[C@@H](O[C@@H]2O[C@H](C)C[C@H](N(C)C)[C@H]2O)[C@@H](C)C[C@@H](C)C(=O)/C=C/C=C/[C@]1(O)CO[C@@H]1O[C@H](C)[C@@H](O)[C@@H](OC)[C@H]1OC [M-V, mycinamicin V]

Kd [3]: 28.1 ± 3.2 µM
Molecule: CC[C@H]1OC(=O)/C=C/[C@@H](C)[C@H](O[C@H]2O[C@@H](C)C[C@@H](N(C)C)[C@@H]2O)[C@H](C)C[C@@H](C)C(=O)/C=C\C=C\[C@H]1C [M-VIII, mycinamicin VIII]

Kd [4]: 149 µM
Molecule: spinach ferredoxin (from UniProt P00221 51-147) (natural protein)

Kd [5]: 7 ± 0.1 µM
B1: N-terminal 6 x His-tagged ferredoxin MycCII (natural protein, Micromonospora griseorubida, UniProt Q83WF4 1-74, looked up)
chain: MRIVLDAERCVGAGQCEATAPELFTQGDDGLGLVRDRPVTPELLGPAREAVDRCPVRAIRIESSVRTGWARGAG
